Values of other authors, collected in PubChem BioAssay AID1259409 (Chemical Carcinogenesis Research Information System (CCRIS), 2018).

System: rodent chemically induced tumor inhibition, incidence and multiplicity
Test: CCRIS tumor inhibitor studies
Details: for outcome: Carcinogen: 1,2-Dimethylhydrazine dihydrochloride (306-37-6), Route [Inhibitor]: Oral, Species: Rat, Strain/Sex: Fischer 344/male, Target Tissue: Type of Lesion: Colon: tumors, Dose [Carcinogen]: 20 mg/kg once a wk for 4 wk, Promoter: None

Q: Which results are given for O=c1ccc2cc(O[C@@H]3O[C@H](CO)[C@@H](O)[C@H](O)[C@H]3O)c(O)cc2o1?
A: outcome (Dose [Inhibitor]: 0.05% in tap water beginning 7 d before first carcinogen administration to end of last carcinogen administration, animal): 5 (31%) vs 10 (62.5% in positive controls) (p <0.05); outcome (Dose [Inhibitor]: 0.05% in tap water beginning after last carcinogen administration to end of 16 wk study): 9 (56.3%) vs 10 (62.5%) in positive controls; ns; tumour outcome (control, treated, inhibition, significance) (Carcinogen: BENZO[A]PYRENE, 50-32-8, Dose [Inhibitor]: 25 MG IN 0.1 ML DMSO 3/WK ADMINISTERED SIMULTANEOUSLY WITH CARCINOGEN FOR DURATION OF STUDY (STUDY DURATION: 368 D), Route [Inhibitor]: DERMAL, Species: MOUSE, Strain/Sex: ICR/FEMALE, Target Tissue: Type of Lesion: SKIN: PAPILLOMA, Dose [Carcinogen]: 5 UG IN 0.1 ML DMSO 3/WK FOR DURATION OF STUDY, Promoter: NONE USED): 13/50 (26%), 0/50 (0%), 100%, not calculated; tumour outcome (control, treated, inhibition, significance) (Carcinogen: BENZO[A]PYRENE, 50-32-8, Dose [Inhibitor]: 25 MG IN 0.1 ML DMSO 3/WK ADMINISTERED SIMULTANEOUSLY WITH CARCINOGEN FOR DURATION OF STUDY (STUDY DURATION: 368 D), Route [Inhibitor]: DERMAL, Species: MOUSE, Strain/Sex: ICR/FEMALE, Target Tissue: Type of Lesion: SKIN: SQUAMOUS CARCINOMA, Dose [Carcinogen]: 5 UG IN 0.1 ML DMSO THAT ALSO CONTAINED AGENT, 3/WK, FOR DURATION OF STUDY, Promoter: NONE USED): 6/50 (12%), 0/50 (0%), 100%, not calculated

Q: For O=[As]O, which “tumour outcome (control, treated, inhibition, significance)” value (Carcinogen: NONE USED, Dose [Inhibitor]: 10 PPM IN DRINKING WATER DAILY FOR DURATION OF STUDY (STUDY DURATION: 16 MO), Route [Inhibitor]: ORAL, Species: MOUSE, Strain/Sex: C3H/FEMALE, Target Tissue: Type of Lesion: MAMMARY GLAND: ADENOCARCINOMA, Promoter: NONE USED) is on record?
A: The value was 82%, 27%, 67%, not calculated.

Q: What about the “tumour outcome (control, treated, inhibition, significance)” value (Carcinogen: NONE USED, Dose [Inhibitor]: 80 PPM IN DRINKING WATER DAILY STARTING AT AGE 1 MO AND CONTINUING FOR LIFE (STUDY DURATION: LIFE), Route [Inhibitor]: ORAL, Species: MOUSE, Strain/Sex: C3H/FEMALE, Target Tissue: Type of Lesion: MAMMARY GLAND: TUMOR, Promoter: NONE USED) of the same molecule?
A: Its value is 82%, 40%, 51%, p 0.02.

Q: Which “tumour outcome (control, treated, inhibition, significance)” value (Carcinogen: 4-(METHYLNITROSAMINO)-1-(3-PYRIDYL)-1-BUTANONE, 64091-91-4, Dose [Inhibitor]: 0, 5 UMOL IN 0.1 ML CORN OIL ONCE 2 HR PRIOR TO CARCINOGEN DOSE (STUDY DURATION: 16 WK), Route [Inhibitor]: GAVAGE, Species: MOUSE, Strain/Sex: STRAIN-A/FEMALE, Target Tissue: Type of Lesion: LUNG: ADENOMA, Dose [Carcinogen]: 10 UMOL IN 0.1 ML SALINE ONCE, Promoter: NONE USED) does the source give for C#CCCCc1ccccc1 here?
A: Its value is 100%, 25%, 75%, p<0.01.

Q: For O=S(=O)(O)c1ccccc1, which “tumour outcome (control, treated, inhibition, significance)” value (Carcinogen: BETA-PROPIOLACTONE, 57-57-8, Dose [Inhibitor]: 40 UMOL IN 0.2 ML WATER 5 MIN PRIOR TO EACH CARCINOGEN DOSE (STUDY DURATION: 26 WK), Route [Inhibitor]: GAVAGE, Species: MOUSE, Strain/Sex: STRAIN-A/FEMALE, Target Tissue: Type of Lesion: FORESTOMACH: PAPILLOMA, Dose [Carcinogen]: 28 UMOL IN 0.1 ML WATER 2/WK FOR 10 WK, Promoter: NONE USED) is on record?
A: Its value is 100%, 100%, 0%, not significant.

Q: With O=C(CCCN=C=S)c1cccnc1 as the molecule, how does the “tumour outcome (control, treated, inhibition, significance)” value (Carcinogen: 4-(METHYLNITROSAMINO)-1-(3-PYRIDYL)-1-BUTANONE, 64091-91-4, Dose [Inhibitor]: 0, 5 UMOL 1/D FOR 4 D ADMINISTERED PRIOR TO CARCINOGEN DOSE (STUDY DURATION: 116 D), Route [Inhibitor]: GAVAGE, Species: MOUSE, Strain/Sex: STRAIN-A, Target Tissue: Type of Lesion: LUNG: ADENOMA, Dose [Carcinogen]: 10 UMOL IN SALINE ADMINISTERED 2 HR POST LAST AGENT DOSE, Promoter: NONE USED) read?
A: Its value is 100%, 96%, 4%, not significant.

Q: What about the “tumour outcome (control, treated, inhibition, significance)” value (Carcinogen: 4-(N-NITROSOMETHYLAMINO)-1-(3-PYRIDYL)-1-BUTANONE, 64091-91-4, Dose [Inhibitor]: 0, 5 UMOL/D FOR 4 CONSECUTIVE DAYS (STUDY DURATION: 16.5 WK), Route [Inhibitor]: GAVAGE, Species: MOUSE, Strain/Sex: STRAIN-A/FEMALE, Target Tissue: Type of Lesion: LUNG: ADENOMA, Dose [Carcinogen]: 10 UMOL ONCE 2 HR POST LAST AGENT DOSE, Promoter: NONE USED) of the same molecule?
A: The value was 100%, 96%, 4%, not calculated.

Q: Which “tumour outcome (control, treated, inhibition, significance)” value (Carcinogen: DIETHYLNITROSAMINE, 55-18-5, Dose [Inhibitor]: 0, 100 MG/KG INJECTED 4, 24, AND 48 HR AFTER EACH CARCINOGEN EXPOSURE (STUDY DURATION: 6 MO), Route [Inhibitor]: INTRAPERITONEAL, Species: RAT, Strain/Sex: BD6/MALE, Target Tissue: Type of Lesion: ESOPHAGUS: TUMOR, Dose [Carcinogen]: 80 MG/KG 1 WK FOR 7 WK) does the source give for O=c1[nH]c(=O)n([C@H]2C[C@H](O)[C@@H](CO)O2)cc1Br here?
A: The value was 10/40 (25%), 11/35 (31%), -24%, not calculated.

Q: What about the “tumour outcome (control, treated, inhibition, significance)” value (Carcinogen: DIETHYLNITROSAMINE, 55-18-5, Dose [Inhibitor]: 0, 100 MG/KG INJECTED 4, 24, AND 48 HR AFTER EACH CARCINOGEN EXPOSURE (STUDY DURATION: 6 MO), Route [Inhibitor]: INTRAPERITONEAL, Species: RAT, Strain/Sex: BD6/MALE, Target Tissue: Type of Lesion: LIVER: TUMOR, Dose [Carcinogen]: 80 MG/KG 1/WK FOR 7 WK) of the same molecule?
A: Its value is 29/40 (73%), 20/35 (57%), 22%, not calculated.
